Reference: US20110110924A1, “Resistin as a Marker and Therapeutic Target for Cardiovascular Disease” (priority 2004, published 2011)
Peptide text beside a SMILES is read from it. * marks the point of attachment. Cbz = O=C(OCc1ccccc1)*

Tests used:
[1] = test system: resistin mRNA in primary human macrophages; assay: Resistin mRNA expression in primary human macrophages (real time PCR); assay type: cell-based; settings: for effect on induction of resistin by LPS: pretreated 2 h, then LPS (1 ng/ml) 24 h
Method: (§1) Peripheral blood mononuclear cells were isolated from whole blood of healthy donors following apheresis and elutriation. […] Cells were plated in 24 well plates at a density of 10^6 cells per well, allowed to adhere for 4 hours, then washed with Dulbecco's Modified Eagles Medium (DMEM) and further cultured in 10% FBS in DMEM supplemented with 5 ng/ml GM-CSF (Sigma) to promote macrophage differentiation. All experiments were performed after overnight equilibration with macrophage serum free medium (Gibco/Invitrogen) supplemented with 5 ng/ml GM-CSF. […] Adenovirus expressing activated IKK in pAD-easy™ vector with GFP and control vector were a generous gift from Steven Shoelson.
RNA was isolated using RNeasy® Mini Kit (Qiagen), then subjected to DNAse digestion followed by reverse transcription (Invitrogen). mRNA transcripts were quantified by the dual-labeled fluorogenic probe method for real time PCR, using a Prism® 7900 thermal cycler and sequence detector (Perkin Elmer/ABI). Real time PCR was performed by using Taqman® Universal Polymerase Master Mix (Applied Biosystems). The primers and probes used in the real-time PCR were the following: […]
The cycle number at which the transcripts of the gene of interest was detectable (CT) was normalized to the cycle number of 36B4 detection, referred to as δ CT. The fold change of the gene of interest expression relative to the vehicle treated group was expressed as 2^− δδ^CT, in which δδ CT equals the δCT of the compound treated group minus δCT of the chosen control group, which was normalized to 1.

[2] = test system: resistin protein secretion by human macrophages; assay: Resistin protein secretion by primary human macrophages (ELISA); assay type: cell-based
Method: as §1
Resistin concentrations, in cell media and human plasma, were assessed with a commercially available ELISA (Linco) and normalized to cell protein.

[3] = test system: TNFα mRNA in primary human macrophages; assay: TNFα mRNA expression in primary human macrophages (real time PCR); assay type: cell-based; settings: LPS 1 μg/ml
Method: (§2) Peripheral blood mononuclear cells were isolated from whole blood of healthy donors following apheresis and elutriation. Greater than 90% of these monocytes expressed CD14 and HLA-DR. Cells were plated in 24 well plates at a density of 10^6 cells per well, allowed to adhere for 4 hours, then washed with Dulbecco's Modified Eagles Medium (DMEM) and further cultured in 10% FBS in DMEM supplemented with 5 ng/ml GM-CSF (Sigma) to promote macrophage differentiation. All experiments were performed after overnight equilibration with macrophage serum free medium (Gibco/Invitrogen) supplemented with 5 ng/ml GM-CSF. Cells were treated as indicated with LPS (Sigma), aspirin (Sigma), SN50 and control peptide (Biomol), MG132, PD98059, SB20358 (Calbiochem), and TNFα (R&D Systems). […]
RNA was isolated using RNeasy® Mini Kit (Qiagen), then subjected to DNAse digestion followed by reverse transcription (Invitrogen). mRNA transcripts were quantified by the dual-labeled fluorogenic probe method for real time PCR, using a Prism® 7900 thermal cycler and sequence detector (Perkin Elmer/ABI). […]
Primer and probe for TNFα was obtained from ABI. […] The fold change of the gene of interest expression relative to the vehicle treated group was expressed as 2^− δδ^CT, in which δδ CT equals the δCT of the compound treated group minus δCT of the chosen control group, which was normalized to 1.

[4] = test system: TNFα secretion by human macrophages; assay: TNFα secretion into medium by primary human macrophages; assay type: cell-based; settings: LPS 1 μg/ml, time course
Method: Peripheral blood mononuclear cells were isolated from whole blood of healthy donors following apheresis and elutriation. Greater than 90% of these monocytes expressed CD14 and HLA-DR. Cells were plated in 24 well plates at a density of 10^6 cells per well, allowed to adhere for 4 hours, then washed with Dulbecco's Modified Eagles Medium (DMEM) and further cultured in 10% FBS in DMEM supplemented with 5 ng/ml GM-CSF (Sigma) to promote macrophage differentiation. All experiments were performed after overnight equilibration with macrophage serum free medium (Gibco/Invitrogen) supplemented with 5 ng/ml GM-CSF. Cells were treated as indicated with LPS (Sigma), aspirin (Sigma), SN50 and control peptide (Biomol), MG132, PD98059, SB20358 (Calbiochem), and TNFα (R&D Systems). Neutralizing antibodies to TNFα, IL-6, and anti-IL-6α, as well as control IgG were obtained from R&D Systems. Adenovirus expressing activated IKK in pAD-easy™ vector with GFP and control vector were a generous gift from Steven Shoelson.

[5] = test system: sTNFR2 secretion by human macrophages; assay: sTNFR2 secretion into medium by primary human macrophages; assay type: cell-based; settings: LPS 1 μg/ml, time course
Method: as §2, with “GM-CSF.” for “GM-CSF. Cells were treated as indicated with LPS (Sigma), aspirin (Sigma), SN50 and control peptide (Biomol), MG132, PD98059, SB20358 (Calbiochem), and TNFα (R&D Systems).”
Resistin concentrations, in cell media and human plasma, were assessed with a commercially available ELISA (Linco) and normalized to cell protein. […] Direct comparison of standard curves generated by the Linco kit with another commercially available resistin ELISA (Biovendor) yielded high correlation (rho=0.99, p<0.001), except that the Biovendor results were approximately 30% lower than those determined with the Linco assay. […] Resistin levels in 40 plasma samples were measured using both Linco and Biovendor ELISA kits, with moderate correlation (rho=0.66). Levels of soluble TNFα Receptor-2 were measured using a commercially available immunoassay (R&D Systems). […]

[6] = test system: plasma resistin; assay: Human endotoxemia study, plasma resistin (ELISA); assay type: in vivo; settings: for increase of plasma resistin levels: healthy volunteers
Method: In another experiment, short term variation in plasma levels was examined by repeated sampling in young healthy control subjects of an additional clinical research study (Reilly et al, 2004c, and Lehrke, 2004, both cited above). Baseline variability in plasma resistin was assessed over a 24 hour period, in healthy young volunteers (n=6; three male and three females; age 24-34; BMI 24.3±1.07) without any past medical history and on no medications. These subjects were recruited to a 60-hour inpatient, General Clinical Research Center (GCRC) protocol designed to assess the metabolic responses to an inflammatory stimulus. Plasma resistin levels were determined in serial blood samples, collected at eight time points over 24 hours prior to the intravenous administration of human-research-grade endotoxin (3 ng/kg) as described in more detail in Reilly et al, 2004c, cited above.
Resistin concentrations, in cell media and human plasma, were assessed with a commercially available ELISA (Linco) and normalized to cell protein. Average correlation coefficient for standards using 4 parameter fit was 0.99. Intra-assay and inter-assay coefficients of variance were 4.7% and 9.1%, respectively. Direct comparison of standard curves generated by the Linco kit with another commercially available resistin ELISA (Biovendor) yielded high correlation (rho=0.99, p<0.001), except that the Biovendor results were approximately 30% lower than those determined with the Linco assay. This appeared to be related to the standards used for calibration. Discrepant absolute values among different assays, including the Biovendor assay, were recently described (Pfutzner 2003 cited above). Resistin levels in 40 plasma samples were measured using both Linco and Biovendor ELISA kits, with moderate correlation (rho=0.66). Levels of soluble TNFα Receptor-2 were measured using a commercially available immunoassay (R&D Systems). Intra-assay and inter assay coefficients of variance were 5.1% and 9.8%, respectively.
Healthy volunteers (n=6, 3 male, 3 female) aged 18-45 with BMI between 20 and 30 and on no medications were studied. The University of Pennsylvania Institutional Review Board approved the study protocol and all subjects gave written informed consent. Following screening and exclusion of subjects with any clinical or laboratory abnormalities, subjects were admitted to the General Clinical Research Center at the University of Pennsylvania for a 60 hour stay. Serial blood samples were collected for 24 hours prior to and 24 hours following the intravenous administration of human research grade endotoxin [obtained from NIH Clinical Center, reference endotoxin (CCRE) (lots 1 and 2; NIHCC PDS #67801)] at a dose of 3 ng/kg given at 6 AM. Plasma and whole blood RNA (PAX tube isolators, Qiagen) samples were isolated from blood, and stored under appropriate conditions for subsequent assays.

[7] = test system: mouse resistin in mouse peritoneal macrophages; assay: Resistin expression in activated mouse peritoneal macrophages; assay type: cell-based; settings: macrophages harvested after thioglycolate treatment; data not shown
[8] = LPS 24 h treatment, increasing concentration
[9] = human macrophages in cell culture

Compound: lipopolysaccharide [LPS]
- time of peak resistin gene expression after LPS ([1]; LPS 1 μg/ml): 24 h
- effect on resistin gene expression [1, 8]: dramatic, dose-responsive increase
- time of induction of resistin mRNA after LPS exposure [1, 9]: 6 to 24 h
- maximal secreted protein level: resistin ([2]; LPS 1 μg/ml, time course, normalized to cell protein): 21.9 ng/mL/mg
- effect on resistin protein secretion into the medium [2, 8]: increase in resistin protein secretion
- time of induction of resistin protein after LPS exposure [2, 9]: 6 to 24 h
- time at which TNFα gene expression was detectable after LPS [3]: 2 h
- time of peak TNFα gene expression after LPS exposure [3]: 6 h
- maximal secreted protein level: TNFα [4]: 207.2 ng/mL/mg
- maximal secreted protein level: sTNFR2 [5]: 39.3 ng/mL/mg
- increase of resistin serum/plasma levels ([6]; LPS in humans (FIG. 6A)): over 400%
- putative maximum increase in resistin due to inflammation ([6]; endotoxin induction, Examples 6-12): 18 to 19 ng/mL
- increase of plasma resistin levels ([6]; intravenous LPS 3 ng/kg, listed as endotoxemia): > 7 fold
- increase of plasma resistin levels ([6]; intravenous LPS 3 ng/kg, listed as endotoxin): 3-5 fold
- time of peak resistin levels after LPS administration ([6]; intravenous LPS 3 ng/kg, six normal volunteers): 8 to 16 h
- mouse resistin expression after LPS [7]: did not express detectable levels

Compound: COc1cccc(-c2cc(=O)c3ccccc3o2)c1N [PD98059]
- effect on induction of resistin by LPS ([1]; 50 μM): partially blocked

Compound: IL-6: cytokine interleukin-6
- effect on resistin ([1]; data not shown and Kaser et al, 2003): induces resistin modestly

Compound: C[S+]([O-])c1ccc(-c2nc(-c3ccc(F)cc3)c(-c3ccncc3)[nH]2)cc1 (stereo not drawn) [SB20358]
- effect on induction of resistin by LPS ([1]; 2.5 μM): partially blocked

Compound: CC(C)C[C@@H](C=O)NC(=O)[C@H](CC(C)C)NC(=O)[C@H](CC(C)C)NC(=O)OCc1ccccc1 [MG132] (Cbz-Leu-Leu-Leu-aldehyde)
- effect on endotoxin-induced activation of resistin expression ([1]; MG132 treatment of macrophages, data not shown): abrogated

Compound: CC(=O)Oc1ccccc1C(=O)O [aspirin]
- effect on endotoxin-induced resistin expression ([1]; pre-treated with aspirin 2 h, then LPS (1 μg/ml) and aspirin 24 h, dose-dependent): dramatically decreased
